Laboratory results taken from PubChem BioAssay AID330 (DTP/NCI, 2004).
Where “and” joins values, the source holds several entries; their conditions need not be identical. Identical values can stand only once. Inconclusive results and toxic doses are left out. The calls were made as follows: active = survival T/C of 150% or more; inactive = T/C below 125% in these data.

System: P388 leukemia ip, CD2F1 mice, survival T/C
Assay: NCI In Vivo Anticancer Drug Screen. Data for tumor model P388 Leukemia (intraperitoneal) in CD2F1 (CDF1) mice
Conditions: endpoint: median survival time, higher = longer survival
How it was run: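 Mice carrying the transplanted tumor received test compound or vehicle. Survival was recorded in each group, and the value is the treated-group measurement divided by that of the vehicle-treated control group.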

[1] = dose: 100.0 mg/kg/injection, schedule: Q04DX003 (ip), vehicle: saline with Tween-80
[2] = dose: 200.0 mg/kg/injection, schedule: Q04DX003 (ip), vehicle: saline with Tween-80
[3] = dose: 400.0 mg/kg/injection, schedule: Q04DX003 (ip), vehicle: saline with Tween-80
[4] = dose: 50.0 mg/kg/injection, schedule: Q01DX009 (ip), vehicle: saline with Tween-80
[5] = dose: 100.0 mg/kg/injection, schedule: Q01DX009 (ip), vehicle: saline with Tween-80
[6] = dose: 200.0 mg/kg/injection, schedule: Q01DX009 (ip), vehicle: saline with Tween-80
[7] = dose: 50.0 mg/kg/injection, schedule: Q01DX009 (ip), vehicle: saline
[8] = dose: 100.0 mg/kg/injection, schedule: Q01DX009 (ip), vehicle: saline
[9] = dose: 200.0 mg/kg/injection, schedule: Q01DX009 (ip), vehicle: saline
[10] = dose: 12.5 mg/kg/injection, schedule: Q01DX005 (ip), vehicle: Klucel (hydroxypropylcellulose) (HPC)

Measured: T/C

O=C(NP(=O)(O)NC(Cc1ccccc1)C(=O)O)OCc1ccccc1 (stereo not given)
inactive: dose: 50.0 mg/kg/injection, schedule: Q01DX005 (ip), vehicle: saline 106 % of control | dose: 100.0 mg/kg/injection, schedule: Q01DX005 (ip), vehicle: saline 109 % of control | dose: 200.0 mg/kg/injection, schedule: Q01DX005 (ip), vehicle: saline 102 % of control

O=[N+]([O-])c1ccc(N=Nc2ccccc2)cc1
inactive: [1] 109 % of control | [2] 100 % of control | [3] 100 % of control

CC(C)c1cc2c(cc1O)C[C@@]1(O)CCCC(C)(C)C1CC2 (stereo not given in full)
inactive: dose: 7.0 mg/kg/injection, schedule: Q01DX005 (ip), vehicle: other 100 % of control | dose: 14.0 mg/kg/injection, schedule: Q01DX005 (ip), vehicle: other 100 % of control | dose: 28.0 mg/kg/injection, schedule: Q01DX005 (ip), vehicle: other 104 % of control | dose: 56.0 mg/kg/injection, schedule: Q01DX005 (ip), vehicle: other 99 % of control

Cc1ccccc1C(C)C[n+]1cccc(C)c1C (stereo not given)
inactive: dose: 6.25 mg/kg/injection, schedule: Q01DX005 (ip), vehicle: saline with Tween-80 101 % of control | dose: 12.5 mg/kg/injection, schedule: Q01DX005 (ip), vehicle: saline with Tween-80 101 % of control

O=C1CC2CCCCC2CC1c1ccc(OCc2ccccc2)c(OCc2ccccc2)c1 (stereo not given)
inactive: [4] 91 % of control | [5] 97 % of control | [6] 103 % of control

COc1ccc(N2C(=S)N(c3cccc(Cl)c3Cl)C(=O)C(N=Nc3ccccc3Cl)C2O)cc1 (stereo not given)
inactive: dose: 100.0 mg/kg/injection, schedule: Q04DX003 (ip), vehicle: distilled water + alcohol 102 % of control | dose: 200.0 mg/kg/injection, schedule: Q04DX003 (ip), vehicle: distilled water + alcohol 99 % of control | dose: 400.0 mg/kg/injection, schedule: Q04DX003 (ip), vehicle: distilled water + alcohol 97 % of control

O=C1c2ccccc2C(=O)N1N1C(=O)c2ccccc2C1=O
inactive: [1] 100 % of control | [2] 100 % of control | [3] 100 % of control

N/C(=N\OC(=O)Nc1ccc(Cl)c(Cl)c1)c1ccccc1
inactive: [7] 101 % of control | [8] 104 % of control | [9] 100 % of control

Cc1cc(NCCCN(C)C)c2ccc3cc(NCCCN(C)C)c(C)nc3c2n1
inactive: dose: 25.0 mg/kg/injection, schedule: Q01DX009 (ip), vehicle: saline with Tween-80 96 % of control | [4] 104 % of control | [5] 102 % of control

CCc1nc(N)nc(N)c1-c1ccc(NCCCN)c([N+](=O)[O-])c1
inactive: dose: 30.0 mg/kg/injection, schedule: Q01DX005 (ip), vehicle: saline with Tween-80 106 % of control | dose: 60.0 mg/kg/injection, schedule: Q01DX005 (ip), vehicle: saline with Tween-80 108 % of control and 110 % of control

C=C1C(=O)OC2C1C(OC(=O)/C(=C/C)CO)CC(C)(O)C1CC=C(C)C21 (stereo not given)
inactive: dose: 11.88 mg/kg/injection, schedule: Q01DX005 (ip), vehicle: Klucel (hydroxypropylcellulose) (HPC) 109 % of control | dose: 23.75 mg/kg/injection, schedule: Q01DX005 (ip), vehicle: Klucel (hydroxypropylcellulose) (HPC) 109 % of control | dose: 47.5 mg/kg/injection, schedule: Q01DX005 (ip), vehicle: Klucel (hydroxypropylcellulose) (HPC) 102 % of control

CCCCOCCOCCOC1C2CC3C1C3(OCCOCCOCCCC)C2 (stereo not given)
inactive: [7] 104 % of control | [8] 99 % of control | [9] 104 % of control

O=C1c2ccccc2C(=O)N1CC#CC[N+]1([O-])CCc2ccccc2C1 (stereo not given)
inactive: [10] 103 % of control | dose: 25.0 mg/kg/injection, schedule: Q01DX005 (ip), vehicle: Klucel (hydroxypropylcellulose) (HPC) 102 % of control | dose: 50.0 mg/kg/injection, schedule: Q01DX005 (ip), vehicle: Klucel (hydroxypropylcellulose) (HPC) 103 % of control | dose: 100.0 mg/kg/injection, schedule: Q01DX005 (ip), vehicle: Klucel (hydroxypropylcellulose) (HPC) 110 % of control

COC1CC(OC2C(C)OC(OC3C(C)OC(OC4CCC5(C)C(=CCC6(O)C5CC(OC(=O)c5ccc(O)cc5)C5(C)C(O)(C(C)=O)CCC65O)C4)CC3OC)CC2OC)OC(C)C1O (stereo not given) (tested in a mixture with another compound)
inactive: dose: 12.5 mg/kg/injection, schedule: Q01DX005 (ip), vehicle: distilled water + Tween-80 + alcohol 100 % of control | dose: 25.0 mg/kg/injection, schedule: Q01DX005 (ip), vehicle: distilled water + Tween-80 + alcohol 94 % of control | dose: 50.0 mg/kg/injection, schedule: Q01DX005 (ip), vehicle: distilled water + Tween-80 + alcohol 101 % of control | dose: 100.0 mg/kg/injection, schedule: Q01DX005 (ip), vehicle: distilled water + Tween-80 + alcohol 115 % of control

CC[As](CC)SC1OC(C2COC(C)(C)O2)C2OC(C)(C)OC12 (stereo not given)
inactive: dose: 12.5 mg/kg/injection, schedule: Q01DX009 (ip), vehicle: distilled water + Tween-80 120 % of control | dose: 25.0 mg/kg/injection, schedule: Q01DX009 (ip), vehicle: distilled water + Tween-80 123 % of control | dose: 50.0 mg/kg/injection, schedule: Q01DX009 (ip), vehicle: distilled water + Tween-80 120 % of control

Cc1cc(O)ccc1Nc1ccc(N(CCCl)CCCl)cc1
active: dose: 200.0 mg/kg/injection, schedule: Q04DX003 (ip), vehicle: Klucel (hydroxypropylcellulose) (HPC) 166 % of control | dose: 400.0 mg/kg/injection, schedule: Q04DX003 (ip), vehicle: Klucel (hydroxypropylcellulose) (HPC) 154 % of control

CS(=O)(=O)N1C=Cc2ccccc2C=C1
inactive: dose: 100.0 mg/kg/injection, schedule: Q04DX002 (ip), vehicle: saline with Tween-80 99 % of control | dose: 200.0 mg/kg/injection, schedule: Q04DX002 (ip), vehicle: saline with Tween-80 90 % of control | dose: 400.0 mg/kg/injection, schedule: Q04DX002 (ip), vehicle: saline with Tween-80 99 % of control

CCN(CC)CCNc1n[nH]c(=O)c2ccccc12
inactive: [4] 104 % of control | [5] 101 % of control | [6] 95 % of control

CNC(=O)CC(N)C(=O)O (stereo not given)
inactive: dose: 12.5 mg/kg/injection, schedule: Q01DX009 (ip), vehicle: saline 96 % of control | dose: 25.0 mg/kg/injection, schedule: Q01DX009 (ip), vehicle: saline 94 % of control | [7] 101 % of control | dose: 50.0 mg/kg/injection, schedule: Q01DX009 (ip), vehicle: water 105 % of control | [8] 98 % of control | dose: 100.0 mg/kg/injection, schedule: Q01DX009 (ip), vehicle: water 105 % of control | [9] 113 % of control | dose: 200.0 mg/kg/injection, schedule: Q01DX009 (ip), vehicle: water 109 % of control

CC(=O)NC(Cn1cc(C(N)=O)ccc1=N)C(=O)O (stereo not given)
inactive: dose: 1.56 mg/kg/injection, schedule: Q01DX005 (ip), vehicle: Klucel (hydroxypropylcellulose) (HPC) 102 % of control | dose: 3.12 mg/kg/injection, schedule: Q01DX005 (ip), vehicle: Klucel (hydroxypropylcellulose) (HPC) 108 % of control and 114 % of control | dose: 6.25 mg/kg/injection, schedule: Q01DX005 (ip), vehicle: Klucel (hydroxypropylcellulose) (HPC) 115 % of control and 122 % of control | [10] 121 % of control

N#CCc1nc2ccccc2nc1Cl
inactive: dose: 50.0 mg/kg/injection, schedule: Q01DX009 (ip), vehicle: distilled water + Tween-80 + alcohol 100 % of control | dose: 100.0 mg/kg/injection, schedule: Q01DX009 (ip), vehicle: distilled water + Tween-80 + alcohol 94 % of control

CC[N+](C)(C)c1ccc(C(=C2C=CC(=[N+](C)C)C=C2)c2ccc(N(C)C)cc2)cc1
inactive: dose: 3.12 mg/kg/injection, schedule: Q01DX005 (ip), vehicle: saline 100 % of control | dose: 6.25 mg/kg/injection, schedule: Q01DX005 (ip), vehicle: saline 100 % of control | dose: 12.5 mg/kg/injection, schedule: Q01DX005 (ip), vehicle: saline 104 % of control

CC1(C)CCCC12CCN1CCC([N+](=O)[O-])C12 (stereo not given)
inactive: dose: 11.5 mg/kg/injection, schedule: Q04DX003 (ip), vehicle: saline with Tween-80 100 % of control | dose: 23.0 mg/kg/injection, schedule: Q04DX003 (ip), vehicle: saline with Tween-80 108 % of control | dose: 46.0 mg/kg/injection, schedule: Q04DX003 (ip), vehicle: saline with Tween-80 100 % of control | dose: 92.0 mg/kg/injection, schedule: Q04DX003 (ip), vehicle: saline with Tween-80 108 % of control
